Results: patent US20090054412A1, “Treatment of Sleep Disorders” (priority 2007, published 2009)
Marks after values point to notes of the source that are not given here.

Test: Example 1: placebo controlled cross-over study, road noise model, healthy volunteers
Assay type: in vivo, human
Protocol: A placebo controlled, randomized, double-blind, cross-over study of the effects of the compound of formula (II) was conducted using a road noise model using 12 healthy volunteers. Specifically, the volunteers were subjected to road traffic noise to imitate the effects of insomnia, and the medication was orally administered 5 minutes before the 11 pm bed time in 1.0 mg, 1.5 mg, 2 mg and 2.5 mg doses in the form of a hard gelatine capsule containing the powdered compound of formula (II). Measurements were then taken at 8, 10 and 12 hours after dosing.

[1] = 1.5, 2.0 & 2.5 mg oral, vs placebo
[2] = all 4 doses (1.0, 1.5, 2 and 2.5 mg oral)
[3] = objective residual effects, 8, 10 and 12 hours after dosing

CN(C)Cc1nc(-c2ncn3c2CN(C)C(=O)c2c(Cl)cccc2-3)no1 [compound of formula (II), 7-chloro-3-(5-dimethylaminomethyl-[1,2,4]oxadiazol-3-yl)-5-methyl-4,5-dihydro-imidazo[1,5-a][1,4]benzodiazepine-6-one]
Subjective assessment (LARS): Coordination (2.5 mg): No impairment
Subjective assessment (LARS): Mood (2.5 mg): No impairment
Subjective assessment (LARS): Sedation (2.5 mg): No impairment
WASO 2nd half night (hrs 5-8) [1]: Significantly reduced
WASO full night (hrs 0-8) [1]: Significantly reduced
Sleep Efficiency Index (2.0 & 2.5 mg oral, vs placebo): Significantly improved
Total Sleep Time (2.0 & 2.5 mg oral, vs placebo): Significantly improved
Performance on cognitive or psychomotor tests (8 to 12 hours after dose, data corrected for multiple comparisons): no impairment of performance
Leeds Sleep Evaluation Questionnaire: Quality of sleep (all 4 doses): Significantly improved at all
Slow Wave Sleep (% and duration) [2]: Significantly increased
Stage IV Sleep (% and duration) [2]: Significantly increased
Sternberg Memory Task (STM) (at 8 or 12 h): No effect
Continuous Tracking Task - reaction time (at 10 or 12 h): No effect
Continuous Tracking Task - deviation (at 8 h): No effect
Leeds Sleep Evaluation Questionnaire: Early morning behaviour (clumsiness & tiredness) (human, in vivo): No effect
Leeds Sleep Evaluation Questionnaire: Ease of awakening (human, in vivo): No effect
Choice Reaction Time - Motor Component (objective residual effects): No effect
Critical Flicker Fusion Test (objective residual effects): No effect
Word Recall - delayed (WRd) (objective residual effects): No effect
Rapid Visual Information Processing [3]: No effect
Sustained Attention to Response (SART) [3]: No effect
Leeds Sleep Evaluation Questionnaire: Getting to sleep (road traffic noise model considered nondiscriminant for sleep onset measures): (No effect)*
